Results: patent publication US9290468B2, “Benzoheterocyclic compounds and use thereof” (SHANGHAI KECHOW PHARMA, INC., priority 2012, dated 2016)

Key:
[1] = system: HT29 human colon cancer cells xenograft; assay: In vivo anti-tumor efficacy in HT29 tumor xenograft model; parameters: species or system BALB/c nude mice; conditions: 20 mg/kg, oral gavage once daily, after 16 days of treatment, HT29 xenograft in nude mice
Method: Female BALB/c nude mice of 5-6 week old were used for all the in vivo efficacy studies. Mice were injected with HT29 human colon cancer cells at 5×10^6 cells per 100 μL SFM into right flank. Tumor volumes were monitored by caliper measurement using the formula: tumor volume (mm^3)=(w^2×l)/2, where w=width and c=length in mm of the tumor. When the tumor volumes reached 150˜300 mm^3, mice were randomized to treatment groups (5˜10 mice per group) to receive compounds (20 mg/kg doses) or vehicle by oral gavage once daily for 16 days. The tumor volumes and body weight were measured every 2-3 days for data analysis. Tumor growth inhibition (TGI) and body weight changes were calculated compared to the vehicle treated groups.

HT29 cells = assay: Cell growth inhibition assay (MTT), HT29 cells; type: cell-based; conditions: Homo sapiens, HT-29, 72 h
Method: (§1) When the HT29 cells reach their exponential phase of growth, 4×10^3 cells/well were plated into 96-well plates, the edge of plates were filled with sterility PBS, at the same time, filled three holds only with medium as blank group. • 2. The plates were cultured in a humidified 5% CO2 incubator at 37° C. for 24 h, and allowed to proliferate for reaching their exponential phase of growth. • 3. Samples were dissolved in DMSO (dimethyl sulfoxide), the concentration of Samples is 10 mmol/L, 1 mmol/L, 100 μmol/L, 10 μmol/L, 1 μmol/L, 0.1 μmol/L, and further diluted with cell culture medium. The final does concentration were 10 μmol/L, 1 μmol/L, 100 nmol/L, 10 nmol/L, 1 nmol/L, 0.1 nmol/L, 0 nmol/L (the control group). The final DMSO concentration used was 1‰ of total volume of medium in all treatments, including the control group. • Blank: medium • Control: the same dose of DMSO with experiment. Group, the DMSO was diluted with cell perfect culture medium. • Experiment: the cells were treated with the concentration of 10 μmol/L, 1 μmol/L, 100 nmol/L, 10 nmol/L, 1 nmol/L, 0.1 nmol/L. • 4. The plates were cultured in a humidified 5% CO2 incubator at 37° C. for 72 h. 20 μL of 3-(4,5-dimethylthiazol-2-yl)-2,5-diphenyltetrazolium bromide (MTT) reagent (5 mg/mL) in phosphate buffered serum (PBS) was added to each well. • 5. The plates were cultured in a humidified 5% CO2 incubator at 37° C. for 4 h. Subsequently, the solution was aspirated and 150 uL dimethyl sulfoxide was added to release the formed formazan crystals from the living cells mitochondria into the solution. • 6. After moderated shaking for 3 min, absorbance was measured at 490 nm using microplate reader. Methods 2 (A375) • 1. When the A375 cells reach their exponential phase of growth, 5×10^3 cells/well were plated into 96-well plates, the edge of plates were filled with sterility PBS, at the same time, filled three holds only with medium as blank group. • 2. The plates were cultured in a humidified 5% CO2 incubator at 37° C. for 24 h. Allowed to proliferate for reaching their exponential phase of growth. • 3. Samples were dissolved in DMSO (Dimethyl Sulfoxide), the concentration of Samples is 10 mmol/L, 1 mmol/L, 100 μmol/L, 10 μmol/L, 1 μmol/L, 0.1 μmol/L, and further diluted with cell culture medium. The final does concentration were 10 μmol/L, 1 μmol/L, 100 nmol/L, 10 nmol/L, 1 nmol/L, 0.1 nmol/L, 0 nmol/L (the control group). The final DMSO concentration used was 1‰ of total volume of medium in all treatments, including the control group. • Blank: medium • Control: the same dose of DMSO with experiment group, the DMSO was diluted with cell perfect culture medium • Experiment: the cells were treated with the concentration of 10 μmol/L, 1 μmol/L, 100 nmol/L, 10 nmol/L, 1 nmol/L, 0.1 nmol/L • 4. The plates were cultured in a humidified 5% CO2 incubator at 37° C. for 72 h. 20 μL of 3-(4,5-dimethylthiazol-2-yl)-2,5-diphenyltetrazolium bromide (MTT) reagent (5 mg/mL) in phosphate buffered serum (PBS) was added to each well. • 5. The plates were cultured in a humidified 5% CO2 incubator at 37° C. for 4 h. Subsequently, the solution was aspirated and 150 uL dimethyl sulfoxide was added to release the formed formazan crystals from the living cells mitochondria into the solution. • 6. After moderated shaking for 3 min, absorbance was measured at 490 nm using microplate reader.

A375 cells = assay: Cell growth inhibition assay (MTT), A375 cells; type: cell-based; conditions: Homo sapiens, A-375, 72 h
Method: as §1

COLO 205 tumor xenograft = assay: In vivo anti-tumor efficacy in COLO205 tumor xenograft model
TNF-α = assay: Inhibition of TNF-α expression, LPS-stimulated spleen cells, ELISA; conditions: Mus musculus, 24 h, read-out: Inhibition of TNF-α expression
Method: Take spleens of BALB/c gene reported mice, cultured in RPMI1640 medium (HyClone). Spleen was ground into single cell suspension, added red blood cell lysis buffer (sigma) to suspension, for cracking the red blood cells • 2. […] Dissolved compounds with DMSO and diluted with RPMI1640 medium containing 10% serum, diluted to a final concentration of 200 nM. • 4. Cells were added to 96 well plates, every hole was 100 μL. […] Each compound and control is three-hole wells. • 5. Cultured at 37° C. for 24 h. • 6. […] Using ELISA (enzyme-linked immunosorbent assay) technique for the determination of the amount of TNF-α in the 24 hours.
(§2) Control was DMSO and its concentration was same as the final concentration of test compounds.

Interleukin-4 (IL-4) = assay: Inhibition of Interleukin-4 (IL-4), GFP+ of CD4+ spleen cells by flow cytometry; conditions: Mus musculus, 48 h, read-out: IL-4 inhibition
Method: Take spleens of BALB/c gene reported mice, culture in RPMI1640 medium (HyClone). • 2. Spleen will be ground into single cell suspension, add red blood cell lysis buffer (sigma) to suspension, for cracking the red blood cells. • 3. […] Dissolved compounds with DMSO and diluted with RPMI1640 medium containing 10% serum, diluted to a final concentration of 200 nM. • 5. […] After mixing, cells were added to 96 well plates, every hole is 100 μL. […] Each compound and control is three-hole wells, cultured at 37° C. for 48 h. • 6. After 48 h, the plates removed from the incubator and each well was collected in the flow tube (BD). • 7. Added cells to ice pre-cooling of PBS (phosphate buffer solution) solution to wash, and in 100 μL of PBS, join the fluorescent antibody CD4 0.5 μL, put in ice 15 min avoid light. • 8. After dyeing wash antibodies with the ice pre-cooling PBS solution. And prepare for flow cytometric detection. • 9. Using flow cytometry (BD FACS calibur) select the CD4+ cell populations, and detect GFP+ cells accounted for the percentage of CD4+ cells, to determine the impact of compounds on IL-4. • 10.
as §2

[2] = 10 mg/kg QD by gavage x 18 days

Compound | IC50 (HT29 cells) [nM] | IC50 (A375 cells) [nM] | further results
Cn1cnc2c(F)c(Nc3ccc(Br)cc3Cl)c(C(=O)NOCCO)cc21 [AZD6244, reference compound] |  |  | Tumor growth inhibition (TGI) [1]: 48.3%
O=C(NOCCO)c1cc2ocnc2c(F)c1Nc1ccc(I)cc1F [Compound 1, 4-fluoro-5-((2-fluoro-4-iodophenyl)amino)-N-(2-hydroxyethoxy)benzo[d]oxazole-6-carboxamide] | 2.3 | 0.85 | Tumor growth inhibition (TGI) [1]: 55.1%; Tumor growth inhibition vs vehicle control group (COLO 205 tumor xenograft; [2]): 91.22%; inhibition at 0.1 µM (TNF-α): ≤ 40%; inhibition at 0.1 µM (Interleukin-4 (IL-4)): ≤ 50%
O=C(NOCC(O)CO)c1cc2ocnc2c(F)c1Nc1ccc(I)cc1F (centres unmarked) [Compound 2, N-(2,3-dihydroxypropoxy)-4-fluoro-5-((2-fluoro-4-iodophenyl)amino)benzo[d]oxazole-6-carboxamide] | 8.1 | 4.6 | 
O=C(NOCCO)c1cc2ocnc2c(F)c1Nc1ccc(Br)cc1Cl [Compound 3, 5-((4-bromo-2-chlorophenyl)amino)-4-fluoro-N-(2-hydroxyethoxy)benzo[d]oxazole-6-carboxamide] | 51.8 | 61.3 | Tumor growth inhibition (TGI) [1]: 32.3%; Tumor growth inhibition vs vehicle control group (COLO 205 tumor xenograft; 20 mg/kg QD by gavage x 18 days): 47.11%; inhibition at 0.1 µM (TNF-α): ≤ 40%; inhibition at 0.1 µM (Interleukin-4 (IL-4)): ≤ 50%
O=C(NOCC(O)CO)c1cc2ocnc2c(F)c1Nc1ccc(Br)cc1Cl (centres unmarked) [Compound 4, 5-((4-bromo-2-chlorophenyl)amino)-N-(2,3-dihydroxypropoxy)-4-fluorobenzo[d]oxazole-6-carboxamide] | 138 | 97.5 | 
O=S(=O)(Nc1cc2ocnc2c(F)c1Nc1ccc(I)cc1F)C1CC1 [Compound 5, N-(4-fluoro-5-((2-fluoro-4-iodophenyl)amino)benzo[d]oxazol-6-yl)cyclopropanesulfonamide] | 81.6 | 125 | 
O=S(=O)(Nc1cc2ocnc2c(F)c1Nc1ccc(I)cc1F)C1(CC(O)CO)CC1 (centres unmarked) [Compound 6, 1-(2,3-dihydroxypropyl)-N-(4-fluoro-5-((2-fluoro-4-iodophenyl)amino)benzo[d]oxazol-6-yl)cyclopropane-1-sulfonamide] | 78.3 | 103 | 
O=S(=O)(Nc1cc2ocnc2c(F)c1Nc1ccc(Br)cc1Cl)C1CC1 [Compound 7, N-(5-((4-bromo-2-chlorophenyl)amino)-4-fluorobenzo[d]oxazol-6-yl)cyclopropanesulfonamide] | 283 | 239 | 
O=S(=O)(Nc1cc2ocnc2c(F)c1Nc1ccc(Br)cc1Cl)C1(CC(O)CO)CC1 (centres unmarked) [Compound 8, N-(5-((4-bromo-2-chlorophenyl)amino)-4-fluorobenzo[d]oxazol-6-yl)-1-(2,3-dihydroxypropyl)cyclopropane-1-sulfonamide] | 1090 | 738 | 
O=C(NOCC(O)CO)c1cc2scnc2c(F)c1Nc1ccc(I)cc1F (centres unmarked) [Compound 10, N-(2,3-dihydroxypropoxy)-4-fluoro-5-((2-fluoro-4-iodophenyl)amino)benzo[d]thiazole-6-carboxamide] | 18.5 | 11.2 | 
O=C(NOCCO)c1cc2scnc2c(F)c1Nc1ccc(Br)cc1Cl [Compound 11, 5-((4-bromo-2-chlorophenyl)amino)-4-fluoro-N-(2-hydroxyethoxy)benzo[d]thiazole-6-carboxamide] | 51.2 | 61.4 | Tumor growth inhibition (TGI) [1]: 68.51%; Tumor growth inhibition vs vehicle control group (COLO 205 tumor xenograft; [2]): 82.14%; inhibition at 0.1 µM (TNF-α): ≤ 40%; inhibition at 0.1 µM (Interleukin-4 (IL-4)): ≤ 50%
O=C(NOCC(O)CO)c1cc2scnc2c(F)c1Nc1ccc(Br)cc1Cl (centres unmarked) [Compound 12, N-(2,3-dihydroxypropoxy)-4-fluoro-5-((4-bromo-2-chlorophenyl)amino)benzo[d]thiazole-6-carboxamide] | 738 | 174 | 
O=S(=O)(Nc1cc2scnc2c(F)c1Nc1ccc(I)cc1F)C1CC1 [Compound 13, N-(4-fluoro-5-((2-fluoro-4-iodophenyl)amino)benzo[d]thiazol-6-yl)cyclopropanesulfonamide] | 98.3 | 207 | 
O=S(=O)(Nc1cc2scnc2c(F)c1Nc1ccc(I)cc1F)C1(CC(O)CO)CC1 (centres unmarked) [Compound 14, 1-(2,3-dihydroxypropyl)-N-(4-fluoro-5-((2-fluoro-4-iodophenyl)amino)benzo[d]thiazol-6-yl)cyclopropane-1-sulfonamide] | 201 | 119 | 
O=S(=O)(Nc1cc2scnc2c(F)c1Nc1ccc(Br)cc1Cl)C1CC1 [Compound 15, N-(5-((4-bromo-2-chlorophenyl)amino)-4-fluorobenzo[d]thiazol-6-yl)cyclopropanesulfonamide] | 184 | 99.8 | 
O=S(=O)(Nc1cc2scnc2c(F)c1Nc1ccc(Br)cc1Cl)C1(CC(O)CO)CC1 (centres unmarked) [Compound 16, N-(5-((4-bromo-2-chlorophenyl)amino)-4-fluorobenzo[d]thiazol-6-yl)-1-(2,3-dihydroxypropyl)cyclopropane-1-sulfonamide] | 1310 | 151 | 
O=C(NOCCO)c1cc2snnc2c(F)c1Nc1ccc(I)cc1F [Compound 17, 4-fluoro-5-((2-fluoro-4-iodophenyl)amino)-N-(2-hydroxyethoxy)benzo[d][1,2,3]thiadiazole-6-carboxamide] | 1 | 0.24 | Tumor growth inhibition (TGI) [1]: 88.75%; Tumor growth inhibition vs vehicle control group (COLO 205 tumor xenograft; 5 mg/kg QD by gavage x 18 days): 95.35%; inhibition at 0.1 µM (TNF-α): ≤ 40%; inhibition at 0.1 µM (Interleukin-4 (IL-4)): ≤ 50%
O=C(NOCC(O)CO)c1cc2snnc2c(F)c1Nc1ccc(I)cc1F (centres unmarked) [Compound 18, N-(2,3-dihydroxypropoxy)-4-fluoro-5-((2-fluoro-4-iodophenyl)amino)benzo[d][1,2,3]thiadiazole-6-carboxamide] | 66.4 | 16.8 | 
O=C(NOCCO)c1cc2snnc2c(F)c1Nc1ccc(Br)cc1Cl [Compound 19, 5-((4-bromo-2-chlorophenyl)amino)-4-fluoro-N-(2-hydroxyethoxy)benzo[d][1,2,3]thiadiazole-6-carboxamide] | 65.7 | 49.4 | Tumor growth inhibition (TGI) [1]: 50.9%; Tumor growth inhibition vs vehicle control group (COLO 205 tumor xenograft; [2]): 86.22%; inhibition at 0.1 µM (TNF-α): ≤ 40%; inhibition at 0.1 µM (Interleukin-4 (IL-4)): ≤ 50%
O=C(NOCC(O)CO)c1cc2snnc2c(F)c1Nc1ccc(Br)cc1Cl (centres unmarked) [Compound 20, 5-((4-bromo-2-chlorophenyl)amino)-N-(2,3-dihydroxypropoxy)-4-fluorobenzo[d][1,2,3]thiadiazole-6-carboxamide] | 687 | 97.3 | 
O=S(=O)(Nc1cc2snnc2c(F)c1Nc1ccc(I)cc1F)C1CC1 [Compound 21, N-(4-fluoro-5-((2-fluoro-4-iodophenyl)amino)benzo[d][1,2,3]thiadiazol-6-yl)cyclopropanesulfonamide] | 1080 | 1770 | 
O=S(=O)(Nc1cc2snnc2c(F)c1Nc1ccc(I)cc1F)C1(CC(O)CO)CC1 (centres unmarked) [Compound 22, 1-(2,3-dihydroxypropyl)-N-(4-fluoro-5-((2-fluoro-4-iodophenyl)amino)benzo[d][1,2,3]thiadiazol-6-yl)cyclopropane-1-sulfonamide] | 2620 | 1160 | 
O=S(=O)(Nc1cc2snnc2c(F)c1Nc1ccc(Br)cc1Cl)C1CC1 [Compound 23, N-(5-((4-bromo-2-chlorophenyl)amino)-4-fluorobenzo[d][1,2,3]thiadiazol-6-yl)cyclopropanesulfonamide] | 3640 | 562 | 
O=S(=O)(Nc1cc2snnc2c(F)c1Nc1ccc(Br)cc1Cl)C1(CC(O)CO)CC1 (centres unmarked) [Compound 24, N-(5-((4-bromo-2-chlorophenyl)amino)-4-fluorobenzo[d][1,2,3]thiadiazol-6-yl)-1-(2,3-dihydroxypropyl)cyclopropane-1-sulfonamide] | 4370 | 992 | 
O=C(NOCCO)c1cc2ocnc2c(F)c1Nc1ccc(Br)cc1F [Compound 25, 4-fluoro-5-((2-fluoro-4-bromophenyl)amino)-N-(2-hydroxyethoxy)benzo[d]oxazole-6-carboxamide] |  |  | inhibition at 0.1 µM (TNF-α): ≤ 40%; inhibition at 0.1 µM (Interleukin-4 (IL-4)): ≤ 50%
O=C(NOCCO)c1cc2scnc2c(F)c1Nc1ccc(Br)cc1F [Compound 34, 4-fluoro-5-((2-fluoro-4-bromophenyl)amino)-N-(2-hydroxyethoxy)benzo[d]thiazol-6-carboxamide] |  |  | inhibition at 0.1 µM (TNF-α): ≤ 40%; inhibition at 0.1 µM (Interleukin-4 (IL-4)): ≤ 50%
O=C(NOCCO)c1cc2snnc2c(F)c1Nc1ccc(Br)cc1F [Compound 43, 5-((4-bromo-2-fluorophenyl)amino)-4-fluoro-N-(2-hydroxyethoxy)benzo[d][1,2,3]thiadiazole-6-carboxamide] |  |  | inhibition at 0.1 µM (TNF-α): ≤ 40%; inhibition at 0.1 µM (Interleukin-4 (IL-4)): ≤ 50%
Cn1cnc2c(F)c(Nc3ccc(Br)cc3Cl)c(C(=O)NOCCO)cc21 [Reference compound 1, reference compound] |  |  | Tumor growth inhibition vs vehicle control group (COLO 205 tumor xenograft; [2]): 72.80%
